The structures appear in SMILES notation. Values after ≈ are worked out from the molar mass of the structure shown.

Data set [1] concerns the target T1, Notch transcriptional activation complex (NTC) (Homo sapiens, UniProt P46531+Q06330).
T1 construct: made in house; host or cells: SF21 insect cells (baculovirus)
Nature of the data set: Notch complex assembly assay (NTC AlphaScreen assay). Format: binding. As for the experimental part:
Notch Complex Assembly Assay
All recombinant proteins were expressed using baculovirus expression vectors in SF21 cells and purified. Unless otherwise stated, all assays contained 125 fmol of double stranded oligonucleotide, CSL, Notch1 and MAML1 proteins. Reactions were carried out in Tris-buffered saline with 0.1% Tween (“TBS-T”) buffer containing 0.2% bovine serum albumin (“BSA”) and 100 μg/mL salmon sperm DNA. Briefly, the Notch complex was assembled on a biotinylated double stranded (“DS”) oligonucleotide harboring one CSL binding site (5′-[…]-3′). Complex assembly was quantitated using ALPHASCREEN technology (Perkin Elmer). Proteins in the complexes were detected using specific antibodies to either MAML1 (Cell signaling, D3K7B), Notch1 (Abcam, 52627) or CSL (anti-His, Abcam 18184). Streptavidin conjugated […] beads (Perkin Elmer, 6760002) were used to bind the DS oligonucleotide, and Protein-A conjugated […] beads (Perkin Elmer, 6760137) were used to detect antibody-coated proteins. For screening compounds, Notch transcriptional activation complex (“NTC”) components were added to wells that already contained the inhibitor to be assayed and allowed to incubate for 30 minutes. The ALPHASCREEN plate (Perkin Elmer, 6008350) was then read on an Envision Plate reader (Perkin Elmer) as specified by the manufacturer.
(In Alpha technology, singlet oxygen from a donor bead excites a nearby acceptor bead.)

A further data set concerns intestinal crypts. The experiment in a line: Histological analysis of mouse intestine tissue (H&E and PAS staining). Format: in vivo, BALB/c mice. As to conditions: 5 days; DBZ at efficacious dose, NADi-351 at 4x the efficacious dose. On the procedure: The compounds and salts disclosed herein no not induce goblet cell metaplasia in intestinal crypts. Intestinal crypts were exposed to vehicle (DMSO), an efficacious dose of dibenzazepine (“DBZ”), a γ-secretase inhibitor, and 4× the efficacious dose of NADi-351 and stained with a hemotoxylin and eosin (“H&E”) stain and a periodic acid-Schiff (“PAS”) stain.
Six-week old BALB/c mice (Jackson Laboratories) were injected intraperitoneally with NADi-351, daily for 5 days. Small intestine samples were harvested on day 5. Formalin-fixed and paraffin-embedded tissues were sectioned at 3 μm thickness. Histochemical identification of intestinal cell types was performed with Periodic Acid-Schiff (PAS) staining kit (ab150680, Abcam), according to manufacturer's instructions.

T1 sequence (P46531 1754-2555 limits assumed): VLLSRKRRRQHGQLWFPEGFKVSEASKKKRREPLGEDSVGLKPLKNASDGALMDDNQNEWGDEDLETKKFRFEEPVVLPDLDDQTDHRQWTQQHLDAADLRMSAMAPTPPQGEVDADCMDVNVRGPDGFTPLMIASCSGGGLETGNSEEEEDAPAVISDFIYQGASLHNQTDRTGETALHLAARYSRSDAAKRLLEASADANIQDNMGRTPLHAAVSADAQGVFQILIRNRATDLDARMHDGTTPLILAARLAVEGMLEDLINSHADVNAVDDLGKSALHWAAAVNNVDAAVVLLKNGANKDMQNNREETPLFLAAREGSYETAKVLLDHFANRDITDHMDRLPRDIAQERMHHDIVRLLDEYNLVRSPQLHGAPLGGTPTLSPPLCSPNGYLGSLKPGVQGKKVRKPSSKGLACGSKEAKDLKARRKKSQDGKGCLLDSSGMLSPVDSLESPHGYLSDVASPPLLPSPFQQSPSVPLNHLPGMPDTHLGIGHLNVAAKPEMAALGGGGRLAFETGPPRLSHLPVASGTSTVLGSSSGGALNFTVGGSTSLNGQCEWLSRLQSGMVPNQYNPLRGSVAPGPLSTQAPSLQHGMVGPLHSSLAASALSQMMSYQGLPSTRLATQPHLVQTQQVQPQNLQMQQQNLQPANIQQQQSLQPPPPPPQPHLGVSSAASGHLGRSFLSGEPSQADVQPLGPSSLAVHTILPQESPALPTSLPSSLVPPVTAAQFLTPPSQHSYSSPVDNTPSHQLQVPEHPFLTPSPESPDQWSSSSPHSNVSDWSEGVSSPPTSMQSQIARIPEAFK
T1 sequence (Q06330 whole entry): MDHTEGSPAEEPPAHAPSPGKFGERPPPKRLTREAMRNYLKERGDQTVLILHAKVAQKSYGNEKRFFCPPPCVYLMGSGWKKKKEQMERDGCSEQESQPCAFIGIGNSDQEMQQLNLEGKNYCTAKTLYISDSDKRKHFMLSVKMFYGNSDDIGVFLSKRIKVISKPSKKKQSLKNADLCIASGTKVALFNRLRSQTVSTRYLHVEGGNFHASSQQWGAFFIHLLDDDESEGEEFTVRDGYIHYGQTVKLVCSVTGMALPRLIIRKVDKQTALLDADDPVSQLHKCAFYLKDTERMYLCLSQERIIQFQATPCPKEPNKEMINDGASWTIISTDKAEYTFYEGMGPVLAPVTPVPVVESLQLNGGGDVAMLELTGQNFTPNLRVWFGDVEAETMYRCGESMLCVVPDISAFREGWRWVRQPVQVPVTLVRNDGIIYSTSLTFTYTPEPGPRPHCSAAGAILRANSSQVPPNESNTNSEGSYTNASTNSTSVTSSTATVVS

With `COc1cc(/C(C)=C2\SC(=S)N(CC(=O)N(C)C)C2=O)cc(F)c1OCc1nnc[nH]1` [NADi-351, (Z)-2-(5-(1-(4-((1H-1,2,4-triazol-3-yl)methoxy)-3-fluoro-5-methoxyphenyl)ethylidene)-4-oxo-2-thioxothiazolidin-3-yl)-N,N-dimethylacetamide], the IC50 in data set [1] (Table E, NTC AlphaScreen assay, read-out: *IC50) came to 2.4 nM. Further, the “increase in potency over NADi-260” value in data set [1] (methylated at the alkene vs NADi-260) amounted to 10 fold. Further, the “goblet cell metaplasia / crypt integrity (H&E and PAS staining)” value in the data set on intestinal crypts is “no goblet cell metaplasia and intact crypts”. Also, the solubility in the data set “physchem” (pH 1.2, simulated gastric fluid) was 158 ± 7.7 µM (≈ 73.3 µg/mL); in “physchem” (pH 6.5, fassif) it was 150 ± 4.1 µM (≈ 69.9 µg/mL); in “physchem” (pH 7.4, aqueous buffer) it was 155 ± 9.6 µM (≈ 72 µg/mL).

As usually defined, the IC50 is the midpoint of a concentration-inhibition curve. What is called solubility is how much of the substance goes into solution per volume. A high value points to much dissolved substance.

(Values after patent publication US12275725B2, “Inhibitors of the notch transcriptional activation complex and methods for use of the same” (University of Miami, priority 2019, dated 2025).)
